Experimental data: patent publication US20120301551A1, “COMPOUNDS AND COMPOSITIONS FOR TREATING NEURONAL DEATH OR NEUROLOGICAL DYSFUNCTION” (Neurotech Pharmaceuticals Co., Ltd., priority 2005, published 2012)

Assays:
[1] = single-dose toxicity test; conditions: mouse, in vivo; single dose
Procedure: Single-dose toxicity test of compounds showing good results in the above three efficacy tests were evaluated.

G93A mouse = assay: oxidative toxicity in G93A mouse (nitrotyrosine immunostaining); type: in vivo; conditions: G93A mice at ages of 10 weeks
Procedure: Reactive oxygen species (ROS) produced in progress of ALS disease was evaluated in G93A mouse.

G93A mice = assay: inflammatory cytokine mRNA in lumbar segments of G93A mice (RT-PCR); type: in vivo, mouse; conditions: 16 week-old G93A mice, 5 mg/kg/day or 20 mg/kg/day in chow
Procedure: Lumbar segments of 16 week-old G93A mice fed with general chow only, and 16 week-old G93A mice fed with chow containing 5 mg/kg/day or 20 mg/kg/day of chemical 01 were extracted and their RNA were separated. The mRNA expression degrees of TNF-a and IL-16, cytokines inducing inflammation, were evaluated through RT-PCT.

**Q.** For O=C(O)c1cc(NCCc2ccc(C(F)(F)F)cc2)ccc1O [chemical 01, 2-Hydroxy-5-[2-(4-trifluoromethyl-phenyl)-ethylamino]-benzoic acid], which LD50 [1] is on record?
**A.** The LD50 was greater than 3000 mg/kg.

**Q.** What about the “fluorescence intensity of nitrotyrosine (oxidative toxicity) in motor neurons” value (G93A mouse) of the same molecule?
**A.** Its value is “decreased”.

**Q.** And the “mRNA expression of TNF-a and IL-16, cytokines inducing inflammation” value (G93A mice)?
**A.** The value was “effectively reduced”.
